From ChEMBL document CHEMBL1201862, “PubChem BioAssay data set” (2004)
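Grown in 96-well plates, cells were treated for 48 hours with each compound at five concentrations. Insufficient inhibition: endpoint recorded as highest concentration tested. GI50: concentration for 50% inhibition of growth.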 Calls of active or inactive are those of the source. Rule as the data show it: active = GI50 up to about 1.1 µM and inactive = higher.

Columns and labels:
Test in all cases: growth of human tumour cells (NCI), 48 h
[1] = system: A549
[2] = system: CCRF-CEM
[3] = system: COLO 205
[4] = system: EKVX
[5] = system: HCC 2998
[6] = system: HL-60
[7] = system: KM12
[8] = system: OVCAR-4
[9] = system: OVCAR-5
[10] = system: SK-MEL-2
[11] = system: SNB-75
[12] = system: SR
[13] = system: TK-10
[14] = system: UACC-257
[15] = system: UACC-62
[16] = system: HOP-62
[17] = system: CAKI-1
[18] = system: A498

Measured: GI50

COc1c(O)c2c3c(cc(C)cc3c1C(C)C)OC2
inactive: [1] > 100 µM | [2] > 100 µM | [3] > 100 µM | [4] > 100 µM | [5] > 100 µM | [6] > 100 µM | [7] > 100 µM | [8] > 100 µM | [9] > 100 µM | [10] > 100 µM | [11] > 100 µM | [12] > 100 µM | [13] > 100 µM | [14] > 100 µM | [15] > 100 µM

CCN(CC)C(=O)C/C(C)=N/NC(=O)c1ccncc1
inactive: [1] > 100 µM | [2] > 100 µM | [3] > 100 µM | [4] > 100 µM | [5] > 100 µM | [6] > 100 µM | [16] > 100 µM | [7] > 100 µM | [9] > 100 µM | [10] > 100 µM | [11] > 100 µM | [13] > 100 µM | [14] > 100 µM | [15] > 100 µM

CCc1cc(C)cc2[n+]1CC=C2C.[O-][Cl+3]([O-])([O-])[O-]
inactive: [1] > 100 µM | [17] 65.9 µM | [3] > 100 µM | [4] > 100 µM | [5] > 100 µM | [6] 18.2 µM | [16] > 100 µM | [7] > 100 µM | [8] > 100 µM | [9] > 100 µM | [10] > 100 µM | [11] > 100 µM | [13] > 100 µM | [14] 27.3 µM

Cc1ccc(NC(=O)C2C(=O)N(c3ccc(C)c(C)c3)C(=O)C2N=N)cc1C (centres undefined)
inactive: [18] > 100 µM | [1] 58.9 µM | [17] > 100 µM | [3] > 100 µM | [4] > 100 µM | [5] > 100 µM | [6] > 100 µM | [16] > 100 µM | [7] > 100 µM | [8] > 100 µM | [9] > 100 µM | [10] > 100 µM | [11] > 100 µM | [13] > 100 µM | [14] > 100 µM | [15] > 100 µM

COc1ccc2c3c([nH]c2c1[N+](=O)[O-])C(C)N(C)CC3 (centres undefined)
inactive: [18] > 100 µM | [1] > 100 µM | [17] 36.6 µM | [2] 32.4 µM | [3] 50.4 µM | [4] > 100 µM | [5] > 100 µM | [6] 39.6 µM | [16] > 100 µM | [7] 51.6 µM | [8] 38 µM | [9] > 100 µM | [10] > 100 µM | [11] 72.3 µM | [13] > 100 µM | [14] > 100 µM | [15] > 100 µM

S=C(Nc1ccccc1)Nc1ccccc1SC(/C=C/NNC1=NN=C(c2ccccc2)C(c2ccccc2)N1)c1ccccc1 (centres undefined)
inactive: [18] > 100 µM | [1] > 100 µM | [17] > 100 µM | [2] 28.5 µM | [3] > 100 µM | [4] > 100 µM | [5] 26.4 µM | [6] 10.4 µM | [16] 16.7 µM | [7] > 100 µM | [8] 5.68 µM | [9] > 100 µM | [10] > 100 µM | [13] > 100 µM | [15] > 100 µM

c1ccc2c(c1)OCCOCCOc1ccccc1OCCO2
inactive: [18] > 100 µM | [1] 71 µM | [17] 78 µM | [2] 34.4 µM | [3] 50.5 µM | [4] 75 µM | [6] 24.8 µM | [16] 67.1 µM | [7] 35.2 µM | [8] 39.3 µM | [9] 77.3 µM | [10] 90.4 µM | [11] 47.1 µM | [13] 45.6 µM | [14] 84.7 µM | [15] 51.2 µM

CCN(CC)/C(=C\Cl)Nc1ccccn1.[O-][Cl+3]([O-])([O-])O
inactive: [18] > 100 µM | [1] > 100 µM | [17] > 100 µM | [2] > 100 µM | [3] > 100 µM | [4] > 100 µM | [5] > 100 µM | [6] > 100 µM | [16] > 100 µM | [7] > 100 µM | [8] > 100 µM | [9] > 100 µM | [10] > 100 µM | [11] > 100 µM | [13] > 100 µM | [14] > 100 µM | [15] > 100 µM

COc1nc(NC2OCC(OC(C)=O)C(OC(C)=O)C2OC(C)=O)c(-c2csc(N)n2)c(=O)n1C (centres undefined)
inactive: [18] > 100 µM | [1] > 100 µM | [17] > 100 µM | [2] > 100 µM | [3] > 100 µM | [6] > 100 µM | [16] > 100 µM | [7] > 100 µM | [8] > 100 µM | [9] > 100 µM | [10] > 100 µM | [11] > 100 µM | [12] > 100 µM | [13] > 100 µM | [14] > 100 µM | [15] > 100 µM

CC(=O)[C@@]1(C)CC2(CCN(C)CC2)OC1C (some centres undefined)
inactive: [18] > 100 µM | [1] > 100 µM | [17] > 100 µM | [3] > 100 µM | [4] > 100 µM | [16] > 100 µM | [7] > 100 µM | [8] > 100 µM | [9] > 100 µM | [11] > 100 µM | [13] > 100 µM | [14] > 100 µM

CCOC1=C2C(=O)OC(=O)C2C2CCCCC2=C1 (centres undefined)
inactive: [18] > 10 µM | [1] > 100 µM | [17] > 100 µM | [2] > 100 µM | [3] > 100 µM | [4] > 100 µM | [5] > 100 µM | [6] > 100 µM | [16] > 100 µM | [7] > 100 µM | [8] > 100 µM | [10] > 100 µM | [11] > 100 µM | [13] > 100 µM | [14] > 100 µM | [15] > 100 µM

CC(=O)Oc1c(C)c(-c2ccccc2)c(C)c(-c2ccccc2)c1C(=S)c1ccccc1
inactive: [18] > 100 µM | [1] > 100 µM | [2] > 100 µM | [3] > 100 µM | [4] > 100 µM | [5] > 100 µM | [6] 35.7 µM | [16] > 100 µM | [7] > 100 µM | [9] > 100 µM | [10] > 100 µM | [11] > 100 µM | [12] 41.9 µM | [13] > 100 µM | [14] > 100 µM | [15] > 100 µM

O=C(N/C(=C\c1ccc(/C=C(\NC(=O)c2ccccc2)c2nc3cc(Cl)ccc3[nH]2)cc1)c1nc2cc(Cl)ccc2[nH]1)c1ccccc1
inactive: [18] 22.9 µM | [1] 24.9 µM | [17] 40.9 µM | [2] 5.31 µM | [3] 24.3 µM | [4] 29 µM | [16] 63.4 µM | [7] 14 µM | [8] 20.2 µM | [9] > 100 µM | [10] 36.7 µM | [11] 24.4 µM | [13] 28.6 µM | [14] 36.4 µM | [15] 16.6 µM

O=C(O)c1c2c(c(C(=O)O)c3ccccc13)-c1ccccc1-2
inactive: [18] 44.1 µM | [1] 36 µM | [2] 32.5 µM | [3] 71.3 µM | [4] 31.4 µM | [5] 37.1 µM | [6] 36.4 µM | [16] 31.7 µM | [7] 38.4 µM | [9] > 100 µM | [10] 33.3 µM | [11] 36.7 µM | [12] 55.6 µM | [13] 36.1 µM | [14] 47.5 µM | [15] 22.9 µM

O=C(CO)C1CC2C=CC1C2 (centres undefined)
inactive: [18] > 100 µM | [1] > 100 µM | [17] > 100 µM | [2] > 100 µM | [3] > 100 µM | [4] > 100 µM | [6] > 100 µM | [16] > 100 µM | [7] > 100 µM | [8] > 100 µM | [9] > 100 µM | [10] > 100 µM | [11] > 100 µM | [13] > 100 µM | [14] > 100 µM | [15] > 100 µM

COc1cc2c(cc1OC)[Se]c1cc(OC)c(OC)cc1[Se]2
inactive: [18] > 10 µM | [1] > 10 µM | [17] > 10 µM | [2] > 10 µM | [3] > 10 µM | [4] > 10 µM | [6] 3.93 µM | [16] > 10 µM | [7] 6.15 µM | [8] > 10 µM | [9] > 10 µM | [10] > 10 µM | [11] 6.84 µM | [12] 4.74 µM | [13] > 10 µM | [14] > 10 µM | [15] > 10 µM

O=C(CSc1nnc[nH]1)C[P+](c1ccccc1)(c1ccccc1)c1ccccc1
inactive: [1] > 100 µM | [17] 54.6 µM | [2] 78.2 µM | [3] > 100 µM | [4] > 100 µM | [5] > 100 µM | [6] 31.7 µM | [16] > 100 µM | [7] > 100 µM | [8] 94 µM | [9] > 100 µM | [10] > 100 µM | [11] 27.4 µM | [13] > 100 µM | [14] > 100 µM | [15] 99.1 µM
